Reference: PubChem BioAssay (NCI)
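Dose response: 5 concentrations. Exposure: 48 h. Format: 96-well plates. Endpoint: linear interpolation; highest concentration if not reached. GI50 is the concentration that inhibits growth by half. Definition used: TGI = concentration required for complete inhibition of growth.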

How the values were obtained:
Experiment in all cases: NCI anticancer screen, dose series, 48 h
A498 renal = tested on: A498 renal
NCI/ADR-RES ovarian = tested on: NCI/ADR-RES ovarian
SNB-75 CNS = tested on: SNB-75 CNS
MDA-MB-231 breast = tested on: MDA-MB-231 breast
NCI-H226 lung = tested on: NCI-H226 lung
HCC-2998 colon = tested on: HCC-2998 colon
OVCAR-4 ovarian = tested on: OVCAR-4 ovarian
EKVX NSCLC = tested on: EKVX NSCLC
SR leukemia = tested on: SR leukemia

CCOC(=O)CNC(=O)CCCn1c(=O)c2c3ccccc3n(C)c2n2nnc(-c3ccccc3)c12
GI50 (A498 renal): 7.29 µM | TGI (A498 renal): 24.6 µM | GI50 (NCI/ADR-RES ovarian): > 50 µM | TGI (NCI/ADR-RES ovarian): > 50 µM | GI50 (SNB-75 CNS): 1.12 µM | TGI (SNB-75 CNS): 3.59 µM | GI50 (MDA-MB-231 breast): 14.7 µM | TGI (MDA-MB-231 breast): 31 µM | GI50 (NCI-H226 lung): 25.1 µM | TGI (NCI-H226 lung): > 50 µM | GI50 (HCC-2998 colon): > 50 µM | TGI (HCC-2998 colon): > 50 µM | GI50 (OVCAR-4 ovarian): > 50 µM | TGI (OVCAR-4 ovarian): > 50 µM | GI50 (EKVX NSCLC): 20.5 µM | TGI (EKVX NSCLC): > 50 µM

O=C(N/C(=C\c1ccc(Br)cc1)c1nc2ccccc2s1)c1ccccc1
TGI (A498 renal): > 100 µM | TGI (SNB-75 CNS): > 100 µM | TGI (NCI-H226 lung): > 100 µM | TGI (OVCAR-4 ovarian): > 100 µM | TGI (EKVX NSCLC): > 100 µM

Cc1ccc(S(=O)(=O)NC(CCC(=O)Nc2ccccc2)C(=O)Nc2ccccc2)cc1 (configuration not stated)
GI50 (A498 renal): 0.142 µM | TGI (A498 renal): 0.897 µM | GI50 (NCI/ADR-RES ovarian): 0.475 µM | TGI (NCI/ADR-RES ovarian): 2.19 µM | GI50 (NCI-H226 lung): 0.447 µM | TGI (NCI-H226 lung): 2.59 µM | GI50 (EKVX NSCLC): 0.401 µM | TGI (EKVX NSCLC): 2.3 µM

CN(C)c1nc(N(C)C)n2nc(-c3ccccc3[N+](=O)[O-])nc2n1
TGI (SR leukemia): > 100 µM | TGI (A498 renal): > 100 µM | TGI (SNB-75 CNS): > 100 µM | TGI (NCI-H226 lung): > 100 µM | TGI (HCC-2998 colon): > 100 µM | TGI (OVCAR-4 ovarian): > 100 µM | TGI (EKVX NSCLC): > 100 µM

CCc1ccc(/C(C)=N/NC(N)=S)cc1
TGI (SR leukemia): > 100 µM | TGI (HCC-2998 colon): > 100 µM | TGI (OVCAR-4 ovarian): > 100 µM | TGI (EKVX NSCLC): > 100 µM

NC1=NC2(O)c3ccccc3C(=O)C2(O)N1 (configuration not stated)
TGI (SR leukemia): > 100 µM | TGI (A498 renal): > 100 µM | TGI (SNB-75 CNS): > 100 µM | TGI (NCI-H226 lung): > 100 µM | TGI (OVCAR-4 ovarian): > 100 µM | TGI (EKVX NSCLC): > 100 µM

O=C(CCc1ccccc1)On1nnc2ccccc2c1=O
TGI (SR leukemia): > 100 µM | TGI (A498 renal): > 100 µM | TGI (SNB-75 CNS): > 100 µM | TGI (NCI-H226 lung): > 100 µM | TGI (HCC-2998 colon): > 100 µM | TGI (OVCAR-4 ovarian): > 100 µM | TGI (EKVX NSCLC): > 100 µM

O=C(CCCNC(=O)OCc1ccccc1)OCc1ccc2c(c1)C(=O)c1ccccc1C2=O
TGI (SR leukemia): > 100 µM | TGI (A498 renal): > 100 µM | TGI (SNB-75 CNS): 40.3 µM | TGI (NCI-H226 lung): 42.6 µM | TGI (HCC-2998 colon): > 100 µM | TGI (OVCAR-4 ovarian): > 100 µM | TGI (EKVX NSCLC): > 100 µM

COc1ccc(CCNCc2cccc(OC)c2OC)cc1OC
TGI (SNB-75 CNS): > 100 µM | TGI (HCC-2998 colon): > 100 µM | TGI (OVCAR-4 ovarian): > 100 µM | TGI (EKVX NSCLC): > 100 µM

COc1ccc(/C=C/c2nc(=S)[nH][nH]2)cc1
TGI (SR leukemia): > 100 µM | TGI (A498 renal): > 100 µM | TGI (SNB-75 CNS): > 100 µM | TGI (NCI-H226 lung): > 100 µM | TGI (HCC-2998 colon): > 100 µM | TGI (OVCAR-4 ovarian): > 100 µM | TGI (EKVX NSCLC): > 100 µM

Cc1cccc2c1Oc1cc(Cl)ccc1C2NC(=O)CN(C)C (configuration not stated)
TGI (SR leukemia): > 100 µM | TGI (SNB-75 CNS): 68.8 µM | TGI (NCI-H226 lung): > 100 µM | TGI (HCC-2998 colon): > 100 µM | TGI (OVCAR-4 ovarian): > 100 µM | TGI (EKVX NSCLC): > 100 µM

CCc1ccccc1-n1c2nc(=O)n(C)c(=O)c-2nc2ccccc21
TGI (A498 renal): 32.5 µM | TGI (SNB-75 CNS): 28.8 µM | TGI (NCI-H226 lung): 36.4 µM | TGI (HCC-2998 colon): 25.6 µM | TGI (OVCAR-4 ovarian): 18.2 µM | TGI (EKVX NSCLC): 24.6 µM

COC1(OC)CC2C(=O)N(Cc3ccccc3)C1CC2S(=O)(=O)c1ccccc1 (configuration not stated)
TGI (SNB-75 CNS): > 100 µM | TGI (NCI-H226 lung): > 100 µM | TGI (EKVX NSCLC): > 100 µM

CCOC(=O)C1=C(NC(C)(C)C)OCC1=O
TGI (SR leukemia): > 100 µM | TGI (SNB-75 CNS): > 100 µM | TGI (NCI-H226 lung): > 100 µM | TGI (HCC-2998 colon): > 100 µM | TGI (OVCAR-4 ovarian): > 100 µM

NS(=O)(=O)c1ccc(NC(=O)CC(=O)Nc2ccc(S(N)(=O)=O)cc2)cc1
TGI (SR leukemia): > 100 µM | TGI (A498 renal): > 100 µM | TGI (SNB-75 CNS): > 100 µM | TGI (NCI-H226 lung): > 100 µM | TGI (HCC-2998 colon): > 100 µM | TGI (OVCAR-4 ovarian): > 100 µM | TGI (EKVX NSCLC): > 100 µM

C[C@H]1COC2(c3ccccc3)CCC(=O)N12 (some centres not stated)
TGI (SR leukemia): > 100 µM | TGI (A498 renal): > 100 µM | TGI (SNB-75 CNS): > 100 µM | TGI (OVCAR-4 ovarian): > 100 µM | TGI (EKVX NSCLC): > 100 µM

COC(=O)C1=C(c2cc(OC)c(OC)c(OC)c2)OC(c2cc(OC)c(OC)c(OC)c2)C1COC(C)=O (configuration not stated)
TGI (SR leukemia): 52.2 µM | TGI (A498 renal): > 100 µM | TGI (SNB-75 CNS): > 100 µM | TGI (NCI-H226 lung): > 100 µM | TGI (HCC-2998 colon): > 100 µM | TGI (OVCAR-4 ovarian): > 100 µM | TGI (EKVX NSCLC): > 100 µM

O=C(/C=C/c1c(O)ccc2ccccc12)c1cccc2ccccc12
TGI (SR leukemia): > 100 µM | TGI (A498 renal): > 100 µM | TGI (SNB-75 CNS): > 100 µM | TGI (NCI-H226 lung): > 100 µM | TGI (HCC-2998 colon): > 100 µM | TGI (EKVX NSCLC): > 100 µM

Cc1[nH]c(=O)nc(CC(O)(c2ccccc2)c2ccccc2)c1-c1ccccc1
TGI (A498 renal): > 100 µM | TGI (SNB-75 CNS): > 100 µM | TGI (NCI-H226 lung): > 100 µM | TGI (HCC-2998 colon): > 100 µM | TGI (OVCAR-4 ovarian): > 100 µM | TGI (EKVX NSCLC): > 100 µM

Cc1c(C2Cc3ccccc3N2C(=O)/C=C\C(=O)O)c2ccccc2n1C (configuration not stated)
TGI (SR leukemia): 85.8 µM | TGI (A498 renal): 66.3 µM | TGI (SNB-75 CNS): 74.2 µM | TGI (NCI-H226 lung): 57.6 µM | TGI (HCC-2998 colon): 39.5 µM | TGI (OVCAR-4 ovarian): > 100 µM | TGI (EKVX NSCLC): 72.9 µM

O=C1OC(c2ccccc2)=N/C1=C\c1c(O)cc(O)cc1O
TGI (A498 renal): > 100 µM | TGI (SNB-75 CNS): > 100 µM | TGI (OVCAR-4 ovarian): > 100 µM | TGI (EKVX NSCLC): > 100 µM

O=C(CCC(=O)N/N=C/c1ccccc1O)N/N=C/c1ccccc1O
TGI (SR leukemia): > 100 µM | TGI (SNB-75 CNS): 31.7 µM | TGI (NCI-H226 lung): > 100 µM | TGI (HCC-2998 colon): > 100 µM | TGI (OVCAR-4 ovarian): > 100 µM | TGI (EKVX NSCLC): 56.4 µM

CN(/N=C/c1ccnc2ccccc12)c1ccc([N+](=O)[O-])cc1[N+](=O)[O-]
TGI (A498 renal): > 100 µM | TGI (SNB-75 CNS): 40 µM | TGI (NCI-H226 lung): > 100 µM | TGI (HCC-2998 colon): > 100 µM | TGI (OVCAR-4 ovarian): > 100 µM | TGI (EKVX NSCLC): > 100 µM

CC1=Nc2c([nH]c(=S)[nH]c2=O)NC(c2ccc(Cl)c(Cl)c2)C1 (configuration not stated)
TGI (SR leukemia): > 100 µM | TGI (A498 renal): 33.3 µM | TGI (SNB-75 CNS): > 100 µM | TGI (NCI-H226 lung): 48.8 µM | TGI (HCC-2998 colon): 32 µM | TGI (OVCAR-4 ovarian): 57.9 µM | TGI (EKVX NSCLC): > 68.3 µM
